Experimental data taken from patent US20080145346A1, “Methods And Compounds For Altering The Load Of Hepatitis Virus” (Agency for Science, Technology and Research, priority 2003, published 2008).

Test system: hnRNP K
Assay: Electrophoretic Mobility Shift Assay (EMSA) of HBV enhancer II probes with HepG2 nuclear extracts
Format: binding, human
Settings: 10 μg HepG2 nuclear extracts; 32P end-labelled 28-mer probe
Procedure: 28-mer oligonucleotide probes were designed to contain either the 1752A or 1752G nucleotide with control probes taken from the adjacent upstream sequence. EMSA was performed using HepG2 nuclear extracts with the four respective probes. Probe 1 (SEQ ID NO: 12): Lanes 1 to 4; Probe 2 (SEQ ID NO: 13, A^1752): Lanes 5 to 8; Probe 3 (SEQ ID NO: 14): Lanes 9 to 12; Probe 4 (SEQ ID NO: 15, G^1752): Lanes 13 to 16. Each set of probes contains increasing concentrations (0.0 μg, 0.05 μg, 0.10 μg and 0.15 μg) of non-specific competitor DNA of [poly-(dI)-poly-(dC)] respectively. This competitor DNA is included to minimize the binding of nonspecific proteins to the labeled probes. DNA-protein complexes migrate at a different speed than free DNA molecules. […] Verification of the presence of hnRNP K as the second component in the complex can subsequently be performed by an analysis as shown in FIG. 19. hnRNP K was detected using the 1752A probe (Probe 2, lanes 5 to 8) along with a weaker band of similar size using the 1752G probe (Probe 4, lanes 13 to 16). […]
HBV-hnRNP K interaction was analysed by a method that is known to persons skilled in the art as an “electrophoretic mobility shift assay” or “EMSA”. […] The 1752A probe (Probe 2, lanes 5 to 8) detected hnRNP K in form of a band. A corresponding weaker band of hnRNP was detected by the 1752G probe (Probe 4, lanes 13 to 16 in FIG. 18).

Question: For “AGTTGGGGGAGGAGATTAGGTTAAAGGT (listed as DNA, chemistry not given here) [Probe 2, 28-mer HBV enhancer II oligonucleotide probe containing 1752A]”, which “densitometric band signal of hnRNP K higher than that detected by Probe 4” value is on record?
Answer: about 300%
